Assay results published in patent US7166744B2, “Retinoid derivatives and methods for producing said compounds and anti-cancer pharmaceutical composition comprising said compounds” (Chebigen Co., Ltd., priority 2001, dated 2007).

Legend:
Assay type in all cases: cell-based
[1] = system: HCT116 cells; test: In vitro matrigel invasion assay, HCT116; settings: HCT116, 1 μM, 8 hours, matrigel-coated filter
Procedure: Meanwhile, to determine the effect of KCBG60 on the invasion potential of HCT116 cells, in vitro assay was performed. […] After cultivation for a predetermined period of time, the number of cells migrating to lower side of the filter was measured to determin the invasion level (FIG. 15).

[2] = system: OVCAR-3 ovary cancer cells; test: MTT proliferation assay, OVCAR-3; settings: ovarian cancer
Procedure: (§1) The effects of test compounds on proliferation of various cancer cells was examined by 3-(4,5-dimethylthiazol-2-yl)-2,5-diphenyltetrazolium bromide (MTT, Sigma) assay in a dose dependent manner. In the MTT assay, colon, liver, cervix, ovary, and breast cancer cell lines were treated with test compounds at various concentrations. Living cancer cells reduce MTT to dark blue MTT formazan that would be measured by absorbance.
(§2) Colon cancer cells, HCT116, DLD-1 and HT29, cervix cancer cells, HeLa and CaSki, ovary cancer cells, SKOV-3, 2774 and OVCAR-3, liver cancer cells, SK-Hep-1, PLCPRF5 and HepG2, and breast cancer cells, ZR75-1 and MDA-MB 231 were seeded at an initial density of 3000 cells per well in 96-well plates. After attachment of cells to the walls of the wells, the medium containing fresh retinoid was treated with various concentrations (0.5 μM, 1 μM, 2.5 μM, 5 μM, 10 μM) for 48 hours. 50 μl of MTT solution (2 mg/ml in PBS) was added to cell culture media. The reaction micture was incubated at 37° C. in a 5% CO2 atmosphere for 4 hours. The supernatant was removed and 150 μl of DMSO was added. The optical density was measured spectrophotometrically at 550 nm. […] For other retinoid derivatives according to the present invention, absorbances were measured by this procedure and IC50 values, concentrations required for 50% growth inhibition, were determined.

[3] = system: 2774 ovary cancer cells; test: MTT proliferation assay, 2774; settings: 48 hours, ovarian cancer
Procedure: as §1, §2

[4] = system: HeLa cervix cancer cells; test: MTT proliferation assay, HeLa; settings: 48 hours, uterine cancer
Procedure: as §1, §2

[5] = molecular target: T1, RARβ (Homo sapiens, UniProt P10826); test: CAT reporter assay, RARβ; settings: 1 μM, control = 1.0; for expression level of CAT enzyme, RARβ −: column '−'
T1 construct: expressed in transfected cells
T1 sequence (P10826 1-455): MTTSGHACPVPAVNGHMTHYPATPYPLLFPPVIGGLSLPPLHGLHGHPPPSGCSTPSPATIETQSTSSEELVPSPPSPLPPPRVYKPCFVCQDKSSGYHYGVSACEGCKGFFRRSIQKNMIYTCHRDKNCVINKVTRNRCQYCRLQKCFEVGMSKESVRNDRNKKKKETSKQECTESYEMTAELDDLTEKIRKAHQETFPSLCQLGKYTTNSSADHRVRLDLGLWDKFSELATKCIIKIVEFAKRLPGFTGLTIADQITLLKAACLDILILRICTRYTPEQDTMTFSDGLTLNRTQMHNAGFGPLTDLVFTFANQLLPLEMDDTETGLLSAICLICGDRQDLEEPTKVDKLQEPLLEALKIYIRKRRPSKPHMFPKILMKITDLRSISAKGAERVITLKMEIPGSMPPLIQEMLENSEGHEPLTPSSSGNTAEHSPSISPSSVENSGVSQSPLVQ
Source text: In order to confirm the effect of KCBG60 according to the present invention on retinoid receptor activity, cells were cotransfected with expression vectors of receptor subfamilies and reporter genes. As the reporter gene, chloramphenicol acetyltransferase (CAT) with a transcription control site reactive to respective receptors was used.

[6] = system: colon cancer cells; test: MTT proliferation assay, colon cancer cells (Table 1); settings: 48 hours, concentration required for 50% growth inhibition, read-out: IC50, activities of various retinoid derivatives in colon cancer cells
Procedure: as §1, §2

[7] = system: HepG2 liver cancer cells; test: MTT proliferation assay, HepG2
Procedure: as §1, §2

[8] = system: SK-Hep-1 liver cancer cells; test: MTT proliferation assay, SK-Hep-1
Procedure: as §1, §2

[9] = system: DLD-1 colon cancer cells; test: MTT proliferation assay, DLD-1
Procedure: as §1, §2

[10] = molecular target: T2, RXRα (Homo sapiens, UniProt P19793); test: CAT reporter assay, RXRα; settings: 1 μM, control = 1.0, RA = 9-cis RA; for expression level of CAT enzyme, RXRα −: column '−'
T2 construct: expressed in transfected cells
T2 sequence (P19793 1-462): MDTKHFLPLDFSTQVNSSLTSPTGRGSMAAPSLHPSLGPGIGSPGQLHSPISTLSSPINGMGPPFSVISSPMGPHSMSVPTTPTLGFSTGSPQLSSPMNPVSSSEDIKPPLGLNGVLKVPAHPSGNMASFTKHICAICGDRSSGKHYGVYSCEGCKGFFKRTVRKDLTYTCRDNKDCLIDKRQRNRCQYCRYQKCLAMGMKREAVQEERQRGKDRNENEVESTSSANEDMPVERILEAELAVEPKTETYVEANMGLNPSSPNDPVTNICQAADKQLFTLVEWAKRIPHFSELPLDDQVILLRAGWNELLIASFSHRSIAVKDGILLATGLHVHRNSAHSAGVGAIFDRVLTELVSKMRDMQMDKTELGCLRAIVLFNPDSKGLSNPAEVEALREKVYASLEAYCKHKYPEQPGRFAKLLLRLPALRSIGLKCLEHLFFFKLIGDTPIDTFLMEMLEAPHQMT
Source text: As the reporter gene, chloramphenicol acetyltransferase (CAT) with a transcription control site reactive to respective receptors was used.

[11] = system: MMP-2 mRNA expression; test: RT-PCR of MMP-2 mRNA in HCT116; settings: HCT116, 1 μM; for inhibition of MMP-2 mRNA expression: 36 hours
Procedure: Previously, it was shown that the synthetic retinoid derivatives inhibit the transcriptional activity of AP-1. Also, it is well known that MMP (matrix metalloproteinase), a main target gene of AP-1 is involved in metastasis of cancer cells. Therefore, the inhibitive effects of the retinoid derivatives on metastasis of cancer was examined by RT-PCR analysis. Colon cancer HCT116 cells were treated with 1 μM retinoid for 36 hours. RNA was isolated from the cells and mRNA expression levels of MMP-1, -2 and -3 were analyzed by RT-PCR. […] As the control, GAPDH was used and it was confirmed that its expression was not affected by retinoid. Meanwhile, the expression level of MMP-3 was affected weakly by KCBG40, intermediately by KCBG41 but strongly by KCBG10 (FIG. 9).
RNA was isolated from the cells and mRNA expression levels of MMP-1, -2 and -3 were analyzed by RT-PCR (FIG. 14).

| Compound | reduction of the number of invaded cells [1] | IC50 ([2]; Homo sapiens, OVCAR-3, 48 hours) | IC50 [3] | IC50 ([4]; Homo sapiens, HeLa) | expression level of CAT enzyme, RARβ + [5] | expression level of CAT enzyme, RARβ − [5] | IC50 [6] | IC50 ([7]; Homo sapiens, HepG2, 48 hours) | IC50 ([8]; Homo sapiens, SK-HEP1, 48 hours) | IC50 ([9]; Homo sapiens, DLD-1, 48 hours) | IC50 ([2]; 48 hours) | expression level of CAT enzyme, RXRα + [10] | expression level of CAT enzyme, RXRα − [10] | IC50 [4] | IC50 ([7]; 48 hours) | IC50 ([8]; 48 hours) | inhibition of MMP-2 mRNA expression [11] | IC50 ([9]; 48 hours) | MMP-2 inhibitory expression level compared to ATRA ([11]; 24 hours) | effect on expression of MMP-2 ([11]; 24 hours) |
| --- | --- | --- | --- | --- | --- | --- | --- | --- | --- | --- | --- | --- | --- | --- | --- | --- | --- | --- | --- | --- |
| CC1=C(/C=C/C(C)=C/C=C/C(C)=C/C(=O)O)C(C)(C)CCC1 [ATRA, All-trans-retinoic acid, reference compound] | 40% | > 100 µM | > 100 µM | 5 µM | 65.2 | 17.3 | 20 µM | > 500 µM | > 500 µM | 20 µM | – | – | – | – | – | – | – | – | – | – |
| CC1=C(/C=C/C(C)=C/C=C/C(C)=C/C(=O)Nc2ccc(O)cc2)C(C)(C)CCC1 [HPR, (2E,4E,6E,8E)-[3,7-dimethyl-9-(2,6,6-trimethylcyclohex-1-enyl)-nona-2,4,6,8-tetraenoylamino]-4-hydroxyphenylamide] | – | – | 30 µM | – | 25.3 | 9.1 | 6 to 8 µM | – | – | – | 8 µM | 1.5 | 1.0 | 3 µM | > 100 µM | > 100 µM | affected very little | 9 µM | – | – |
| CCCC(=O)Oc1cc(O)ccc1NC(=O)/C=C(C)/C=C/C=C(C)/C=C/C1=C(C)CCCC1(C)C [KCBG10, 2.2-[(2E,4E,6E,8E)-3,7-Dimethyl-9-(2,6,6-trimethylcyclohex-1-enyl)-nona-2,4,6,8-tetraenoylamino]-5-hydroxyphenylbutanoate] | – | – | 8 µM | – | – | – | 3 µM | – | – | – | 0.8 µM | – | – | 0.5 µM | > 100 µM | 4.5 µM | weakly | 6 µM | – | – |
| CCCC(=O)Nc1cc(NC(=O)/C=C(C)/C=C/C=C(C)/C=C/C2=C(C)CCCC2(C)C)ccc1O [KCBG41, (2E,4E,6E,8E)-[3,7-dimethyl-9-(2,6,6-trimethylcyclohex-1-enyl)-nona-2,4,6,8-tetraenoylamino]-(3-butyrylamino-4-hydroxy)phenylamide] | – | – | 2.5 µM | – | – | – | 0.3 µM | – | – | – | 3.7 µM | – | – | 3 µM | > 100 µM | 0.8 µM | strongly | 1.5 µM | – | – |
| CCCC(=O)Oc1ccc(NC(=O)/C=C(C)/C=C/C=C(C)/C=C/C2=C(C)CCCC2(C)C)cc1 [KCBG60] | 50% | – | – | – | 1.0 | 0.8 | – | – | – | – | – | 1.3 | 0.9 | – | – | – | – | – | two times higher | – |
| phenyl butylate | did not show invasion inhibiting effect | – | – | – | 0.9 | 0.7 | – | – | – | – | – | 1.2 | 1.1 | – | – | – | – | – | – | did not affect expression of MMP-2 at all |
